Measured values taken from paper PMC11035696, “Prospective de novo drug design with deep interactome learning” (Nature Communications, 2024).
Several values for one entry are separate records, joined by “and”; a condition that tells them apart may be missing. Identical values can stand only once.

Columns and labels:
Format in all cases: cell-based
human PPARα = target: T1, human PPARα (Homo sapiens, UniProt Q07869); assay: Gal4-hybrid reporter gene assay, PPARα activation; settings: for Fold PPARα activation: individual replicates, source data Fig. 5
T1 construct: expressed in transfected cells; host or cells: HEK293T
T1 sequence (Q07869 239-466 limits assumed): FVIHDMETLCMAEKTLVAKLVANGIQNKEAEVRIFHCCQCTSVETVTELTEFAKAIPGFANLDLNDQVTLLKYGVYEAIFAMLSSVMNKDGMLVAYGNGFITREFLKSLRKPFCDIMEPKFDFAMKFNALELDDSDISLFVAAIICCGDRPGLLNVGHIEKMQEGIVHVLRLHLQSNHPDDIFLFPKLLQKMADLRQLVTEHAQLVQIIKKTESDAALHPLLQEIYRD
Procedure: (§1) Compounds 1–3 were characterized in a hybrid reporter gene assay for their agoniztic effect on human nuclear receptors PPARα/γ/δ, RXRα, FXRα, RARα in HEK293T cells. Compound 1 was tested in an isothermal titration calorimetry (ITC) assay to measure direct binding affinity to the ligand-binding domain of PPARγ. ADME properties were measured in standardized assays at Roche.
(§2) PPAR activation was determined in uniform Gal4-hybrid reporter gene assays for the PPARα, PPARγ and PPARδ isoforms in HEK293T cells (German Collection of Microorganisms and Cell Culture GmbH, DSMZ) which were transiently transfected with pFR-Luc (Stratagene, La Jolla, CA, USA; reporter) and pRL-SV40 (Promega, Madison, WI, USA; internal control) and one pFA-CMV-hPPAR-LBD[97] clone, coding for the hinge region and ligand binding domain of the canonical isoform of human PPARα, PPARγ, PPARδ or respectively. Cells were cultured in Dulbecco’s modified Eagle’s medium (DMEM), high glucose supplemented with 10% fetal calf serum (FCS), sodium pyruvate (1 mM), penicillin (100 U ⋅ ml^-1), and streptomycin (100 μg ⋅ ml^-1) at 37 °C and 5% CO2 and seeded in 96-well plates (3 × 10^4 cells per well). After 24 h, medium was changed to Opti-MEM without supplements and cells were transiently transfected using Lipofectamine LTX reagent (Invitrogen) according to the manufacturer’s protocol. Five hours after transfection, cells were incubated with the test compounds in Opti-MEM supplemented with penicillin (100 U ⋅ ml^-1), streptomycin (100 μg ⋅ ml^-1) and 0.1% DMSO for 16 h before luciferase activity was measured using the Dual-Glo Luciferase Assay System (Promega) according to the manufacturer’s protocol on a Tecan Spark luminometer (Tecan Deutschland GmbH, Germany). Firefly luminescence was divided by Renilla luminescence and multiplied by 1000 resulting in relative light units (RLU) to normalize for transfection efficiency and cell growth. Fold activation was obtained by dividing the mean RLU of a test compound by the mean RLU of the untreated control. All samples were tested in at least three biologically independent experiments in duplicates. For dose-response curve fitting and calculation of EC50 values, the equation “[Agonist] versus response (variable slope—four parameters)” was used in GraphPad Prism (version 7.00, GraphPad Software, La Jolla, CA, USA) with fold activation data. The reference agonizts GW7647 (PPARα)[98],[99], pioglitazone (PPARγ)[100],[101] and L165,041 (PPARδ)[102],[103] were used to validate the assays and to monitor assay performance. Nuclear receptor selectivity profiling was performed with corresponding pFA-CMV-hNR-LBD clones and suitable reference agonizts on RARα (pFA-CMV-hRARα-LBD[104], 1 μM tretinoin), LXRα (pFA-CMV-hLXRα-LBD[104], 1 μM TO901317) and RXRα (pFA-CMV-h RXRα-LBD[105], 1 μM Bexarotene).

[1] = target: T2, retinoid X receptor (RXR)α (Homo sapiens, UniProt P19793); assay: Nuclear receptor selectivity profiling, hybrid reporter gene assay, RXRα
T2 construct: RXRα (pFA-CMV-h RXRα-LBD[105], 1 μM Bexarotene); expressed in transfected cells; host or cells: HEK293T
T2 sequence (P19793 227-458 limits assumed): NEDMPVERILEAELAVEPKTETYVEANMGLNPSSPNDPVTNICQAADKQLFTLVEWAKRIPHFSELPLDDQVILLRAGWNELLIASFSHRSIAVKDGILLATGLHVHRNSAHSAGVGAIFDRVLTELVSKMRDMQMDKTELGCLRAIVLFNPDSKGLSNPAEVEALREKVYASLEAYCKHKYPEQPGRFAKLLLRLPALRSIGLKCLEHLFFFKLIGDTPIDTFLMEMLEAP
Procedure: as §1, §2

human PPARδ = target: T3, human PPARδ (Homo sapiens, UniProt Q03181); assay: Gal4-hybrid reporter gene assay, PPARδ activation; settings: result in words
T3 construct: expressed in transfected cells; host or cells: HEK293T
T3 sequence (Q03181 211-439 limits assumed): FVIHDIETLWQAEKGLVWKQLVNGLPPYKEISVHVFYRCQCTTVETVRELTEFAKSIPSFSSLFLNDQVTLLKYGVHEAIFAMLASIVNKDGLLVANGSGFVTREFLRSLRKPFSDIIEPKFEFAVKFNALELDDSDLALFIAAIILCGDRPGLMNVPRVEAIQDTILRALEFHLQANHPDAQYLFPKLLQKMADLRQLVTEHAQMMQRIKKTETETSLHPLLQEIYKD
Procedure: as §1
PPAR activation was determined in uniform Gal4-hybrid reporter gene assays for the PPARα, PPARγ and PPARδ isoforms in HEK293T cells (German Collection of Microorganisms and Cell Culture GmbH, DSMZ) which were transiently transfected with pFR-Luc (Stratagene, La Jolla, CA, USA; reporter) and pRL-SV40 (Promega, Madison, WI, USA; internal control) and one pFA-CMV-hPPAR-LBD[97] clone, coding for the hinge region and ligand binding domain of the canonical isoform of human PPARα, PPARγ, PPARδ or respectively. Cells were cultured in Dulbecco’s modified Eagle’s medium (DMEM), high glucose supplemented with 10% fetal calf serum (FCS), sodium pyruvate (1 mM), penicillin (100 U ⋅ ml^-1), and streptomycin (100 μg ⋅ ml^-1) at 37 °C and 5% CO2 and seeded in 96-well plates (3 × 10^4 cells per well). After 24 h, medium was changed to Opti-MEM without supplements and cells were transiently transfected using Lipofectamine LTX reagent (Invitrogen) according to the manufacturer’s protocol. Five hours after transfection, cells were incubated with the test compounds in Opti-MEM supplemented with penicillin (100 U ⋅ ml^-1), streptomycin (100 μg ⋅ ml^-1) and 0.1% DMSO for 16 h before luciferase activity was measured using the Dual-Glo Luciferase Assay System (Promega) according to the manufacturer’s protocol on a Tecan Spark luminometer (Tecan Deutschland GmbH, Germany). Firefly luminescence was divided by Renilla luminescence and multiplied by 1000 resulting in relative light units (RLU) to normalize for transfection efficiency and cell growth. Fold activation was obtained by dividing the mean RLU of a test compound by the mean RLU of the untreated control. […]

[2] = target: T4, retinoic acid receptor (RAR)α (Homo sapiens, UniProt P10276); assay: Nuclear receptor selectivity profiling, hybrid reporter gene assay, RARα
T4 construct: RARα (pFA-CMV-hRARα-LBD[104], 1 μM tretinoin); expressed in transfected cells; host or cells: HEK293T
T4 sequence (P10276 183-417 limits assumed): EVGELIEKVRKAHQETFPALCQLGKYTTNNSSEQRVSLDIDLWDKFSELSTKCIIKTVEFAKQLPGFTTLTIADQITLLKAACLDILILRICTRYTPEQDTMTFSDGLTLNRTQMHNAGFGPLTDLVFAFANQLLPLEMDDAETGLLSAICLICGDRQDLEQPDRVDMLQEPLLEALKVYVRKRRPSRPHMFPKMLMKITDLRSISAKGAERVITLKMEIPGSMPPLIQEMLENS
Procedure: as §1, §2

human PPARγ = target: T5, human PPARγ (Homo sapiens, UniProt P37231); assay: Gal4-hybrid reporter gene assay, PPARγ activation
T5 construct: expressed in transfected cells; host or cells: HEK293T
T5 sequence (P37231 238-503 limits assumed): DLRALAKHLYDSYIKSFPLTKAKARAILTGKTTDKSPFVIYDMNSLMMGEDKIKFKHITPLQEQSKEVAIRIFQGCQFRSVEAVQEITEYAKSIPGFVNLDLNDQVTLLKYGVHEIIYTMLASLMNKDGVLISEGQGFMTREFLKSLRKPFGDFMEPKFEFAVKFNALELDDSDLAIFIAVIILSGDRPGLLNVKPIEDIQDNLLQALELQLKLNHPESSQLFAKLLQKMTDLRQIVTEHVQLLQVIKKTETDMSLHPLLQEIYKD
Procedure: as §1, §2

liver X receptor (LXR)α = target: T6, liver X receptor (LXR)α (Homo sapiens, UniProt Q13133); assay: Nuclear receptor selectivity profiling, hybrid reporter gene assay, LXRα
T6 construct: LXRα (pFA-CMV-hLXRα-LBD[104], 1 μM TO901317); expressed in transfected cells; host or cells: HEK293T
T6 sequence (Q13133 209-447 limits assumed): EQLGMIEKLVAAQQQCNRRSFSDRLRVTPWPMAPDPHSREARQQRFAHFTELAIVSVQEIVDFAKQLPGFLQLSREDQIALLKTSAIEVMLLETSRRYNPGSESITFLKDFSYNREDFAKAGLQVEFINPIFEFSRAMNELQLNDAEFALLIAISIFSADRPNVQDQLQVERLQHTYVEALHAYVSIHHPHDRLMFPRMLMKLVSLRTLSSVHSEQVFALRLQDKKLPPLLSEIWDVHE
Procedure: as §2

Fold PPARα activation (human PPARα; conc. 0,00000100 M): 1,270 and 1,357 and 1,503
Fold PPARα activation (human PPARα; conc. 0,00000300 M): 2,302 and 2,145 and 2,016
Fold PPARα activation (human PPARα; conc. 0,00000600 M): 4,397 and 3,518 and 3,421
Fold PPARα activation (human PPARα; conc. 0,00001000 M): 4,249 and 4,283 and 3,276
Fold PPARα activation (human PPARα; conc. 1,00000000e-007 M): 0,978 and 1,133 and 1,009
Fold PPARα activation (human PPARα; conc. 1,00000000e-008 M): 1,321 and 1,277 and 1,261
Fold PPARα activation (human PPARα; conc. 3,00000000e-007 M): 1,112 and 1,105 and 1,170
EC50 (human PPARα; hybrid reporter gene assay, HEK293T cells): 3.4 ± 0.3 µM
RXRα reporter activation, replicate values (DMSO ctrl = 1,000) ([1]; 3 µM): 1,197 and 1,077 and 1,363
RXRα reporter activation, replicate values (DMSO ctrl = 1,000) ([1]; 10 µM): 1,155 and 1,200 and 1,295
activity on PPARδ (human PPARδ): no discernible activity
RARα reporter activation, replicate values (DMSO ctrl = 1,000) ([2]; 3 µM): 1,594 and 0,817 and 1,542
RARα reporter activation, replicate values (DMSO ctrl = 1,000) ([2]; 10 µM): 1,322 and 1,046 and 1,521
PPARγ reporter activation, replicate values (Figure 5) (human PPARγ; conc. 0,00000200 M): 8,955 and 11,943 and 12,245 and 11,406
PPARγ reporter activation, replicate values (Figure 5) (human PPARγ; conc. 0,00000300 M): 17,358 and 14,143 and 17,954
PPARγ reporter activation, replicate values (Figure 5) (human PPARγ; conc. 1,00000000e-007 M): 0,766 and 0,976 and 1,313
PPARγ reporter activation, replicate values (Figure 5) (human PPARγ; conc. 1,00000000e-008 M): 0,785 and 0,961 and 1,208
EC50 (human PPARγ; hybrid reporter gene assay, HEK293T cells, read-out: EC50(PPARγ)): 1800 ± 100 nM
LXRα reporter activation, replicate values (DMSO ctrl = 1,000) (liver X receptor (LXR)α; 3 µM): 2,211 and 1,139 and 1,444
LXRα reporter activation, replicate values (DMSO ctrl = 1,000) (liver X receptor (LXR)α; 10 µM): 2,149 and 1,346 and 1,762
Structure (SMILES): COc1ccc(Oc2ccc3c(c2)ncn3CCOc2ccc(CCC(=O)O)cc2)cc1 [Compound 3]
PPARγ reporter activation, replicate values (Figure 5) (human PPARγ; conc. 0,00000100 M): 3,029 and 3,245 and 3,909 and 5,555 and 6,269 and 5,771 and 5,328
PPARγ reporter activation, replicate values (Figure 5) (human PPARγ; conc. 0,00001000 M): 19,221 and 19,629 and 17,043 and 19,534 and 21,221 and 20,328 and 19,624
PPARγ reporter activation, replicate values (Figure 5) (human PPARγ; conc. 3,00000000e-007 M): 1,068 and 1,571 and 1,294 and 2,247 and 2,063 and 1,947 and 1,524
